In patent US10428013B2, “Amide compound, preparation method and uses thereof” (Shanghai Institute of Phamaceutical Industry, priority 2011, dated 2019):

Legend:
[1] = tested on: Hyperlipemia Model of SD Rat; experiment: Screening in the hyperlipemia model of SD rat (fat emulsion by gavage; serum lipids); format: in vivo; conditions: hyperlipemia SD rats, 40 mg/kg, dosed 21 days, X ± SD
Protocol: Materials and Methods for Screening with the Compounds Prepared in Experiment 1 to 21 in the Hyperlipemia Model of SD Rat
SD rats, male, 150-180 g, supplied by Shanghai Slaccas Laboratory Animal Company Limited.
Preparation of fat emulsion: 500 g lard oil was weighed and placed into a vessel, heated for melting, and upon heating up to the temperature of 100° C., 200 g cholesterol was added and fully dissolved, then 20 g propylthiouracil was added. After full stirring and dissolving, 500 ml Tween 80 was added to give an oil phase. Meanwhile, 600 ml distilled water and 400 ml 1,2-propylene glycol were heated to 60° C. in water bath, and then 40 g sodium deoxycholate was added with stirring, until full dissolution, to give an aqueous phase. The aqueous phase was added into the oil phase and fully and uniformly mixed, to prepare the fat emulsion.
Formulation of the solution for the compounds: an appropriate amount of compounds was triturated with appropriate amount of Tween 80 for homogeneous dispersion, and then sufficient CMC-Na solution was added and fully triturated, suspended to give the solution for the compounds.
The animals were fed for acclimation for 3 days, with 8 animals as blank control (Control) according to weight, and the rest was subject to intragastric administration of fat emulsion at 1 ml/100 g weight at A.M. 9:00-11:00 daily for continuous 2 weeks; the animals were fasted for 12 hours, and had 1 ml blood sampled at orbital cavity, which was measured with the Hitachi Automatic Biochemical Analyzer 7080 for serum cholesterol (CHO), triglyceride (TO), low-density lipoprotein (LDL-C) and high-density lipoprotein (HDL-C), with the animals having CHO of 4-7 mmol/L for experiment.
The animals dosed with fat emulsion for 2 weeks were divided into model group (Model), simvastatin group (Sim, 10 mg/kg) and compound group (40 mg/kg) according to weight, and continued to receive intragastric administration with fat emulsion; at the same time, the dosed group was administered with respective amount of drug, and the model group was administered with equal volume of solvent. Fat emulsion was dosed by gavage at A.M., and drug was dosed at P.M. The animals were weighed at Monday, and were observed. The animals were dosed for continuous 21 days, and fasted for 12 hours, with 1 ml blood sampling at orbital cavity. The liver was exposed and observed for pathologic condition; after slicing and weighing, it was fixed into the 4% formaldehyde solution for pathologic examination.
The Hitachi Automatic Biochemical Analyzer 7080 was used to measure serum cholesterol (CHO), triglyceride (TG), low-density lipoprotein (LDL-C) and high-density lipoprotein (HDL-C).
Laboratory data were expressed as X±SD (Standard Deviation), and comparison between groups was carried out by t-testing.

[2] = tested on: Mice; experiment: Testing for acute toxicity in mice; format: in vivo; conditions: orally by gavage, 5 g/kg, observation 14 days
Protocol: Testing for Acute Toxicity in Mice
The compounds was dissolved into an appropriate amount of Tween-80, and suspended and dispersed uniformly into a given amount of CMC-Na solution, which was administered orally and by gavage at a dose of 5 g/kg, with no toxicity associated with administration being observed, and no death of animals occurred during observation of continuous 14 days. From the results, the sample Compound 01, Compound 02, Compound 03, Compound 04, Compound 05, Compound 06, Compound 07, Compound 08, Compound 09, Compound 10, Compound 11, Compound 12, Compound 13, Compound 14, Compound 15, Compound 16, Compound 17, Compound 18, Compound 19, Compound 20 and Compound 21 were safe.

[3] = tested on: Cholelithiasis Model of Golden Hamster; experiment: Screening in the cholelithiasis model of golden hamster (biochemical measurement of bile); format: in vivo, golden hamsters; conditions: dosed 45 days, X ± SD
Protocol: Screening with the Compounds Prepared in Experiment 1 to 21 in the Cholelithiasis Model of Golden Hamster
68 male golden hamsters, 50-60 g, supplied by Shanghai Slaccas Laboratory Animal Company Limited.
The animals were fed for acclimation for 3 days, with 8 animals as blank control (Control) according to weight. The control was dosed with normal rat feedstuff, and the rest was dosed with feedstuff leading to cholelithiasis (sucrose 32.1%, cheese 64.2%, cholesterol 0.2%, salt 3%, vitamin B1 […], concentrated fish liver oil 0.4%). The animals were fed for acclimation for another 7 days, and divided into model group (Model), simvastatin group (Sim, 10 mg/kg), Ursodesoxycholic acid group (UDCA, 40 mg/kg), and compound group, n=6/group.
[…] 2:00-3:00 daily. The animals were weighed at Monday, and observed for hair color, stool, and variation of activation level.
The animals were dosed for continuous 45 days and then fasted for 12 hours; were anesthetized with 30 mg/kg sodium secobarbital via intraperitoneal injection; had 1 ml blood sampled via abdominal aorta; had gallbladder exposed, with an orifice on the gallbladder being clamped by the ophthalmological pliers and bile in the gallbladder being sucked with 1 ml syringe.
The Hitachi Automatic Biochemical Analyzer 7080 was used to measure cholesterol (CHO), total total bilirubin (TBIL), total bile acid (TBA) and total protein (TP) in bile.
Laboratory data was expressed as X±SD, and comparison of measurement data between groups was carried out by t-testing, with non-parametric testing for enumeration data.

SMILES	CHO1 Concentration (serum cholesterol) [1]	HDL-C Concentration (serum high-density lipoprotein) [1]	LDL-C Concentration (serum low-density lipoprotein) [1]	TG Concentration (serum triglyceride) [1]	Acute toxicity, overall result [2]	Cholesterol (CHO) in bile ([3]; 80 mg/kg)	Total bile acid (TBA) in bile ([3]; 80 mg/kg)	Total protein (TP) in bile ([3]; 80 mg/kg)	Total total bilirubin (TBIL) in bile ([3]; 80 mg/kg)	Cholesterol (CHO) in bile ([3]; 20 mg/kg)	Total bile acid (TBA) in bile ([3]; 20 mg/kg)	Total protein (TP) in bile ([3]; 20 mg/kg)	Total total bilirubin (TBIL) in bile ([3]; 20 mg/kg)
Cc1ccc(C)c(OCCCC(C)(C)C(=O)NCC(=O)c2ccc(CO)cc2)c1 [Compound 21]	14.42 ± 2.75 mmol/L	1.69 ± 0.26 mmol/L	12.15 ± 3.12 mmol/L	2.00 ± 0.52 mmol/L	safe	–	–	–	–	–	–	–	–
CCC(C)(Oc1ccc(C2(c3ccc(OC(C)(CC)C(=O)NCC(=O)c4ccc(O)cc4)cc3)CCCCC2)cc1)C(=O)O (stereo not drawn) [Compound 11]	12.18 ± 3.12 mmol/L	1.79 ± 0.34 mmol/L	11.37 ± 3.66 mmol/L	1.13 ± 0.14 mmol/L	–	0.82 ± 0.58 mmol/L	17.46 ± 7.77 mmol/L	28.66 ± 8.48 g/L	48.9 ± 22.10 µmol/L	–	–	–	–
CC(Oc1ccc(Cl)cc1)(C(=O)NCC(=O)c1ccc(O)cc1)C1CC1 (stereo not drawn) [Compound 20]	19.88 ± 0.84 mmol/L	2.63 ± 0.57 mmol/L	18.48 ± 0.43 mmol/L	1.72 ± 0.26 mmol/L	–	–	–	–	–	0.92 ± 0.66 mmol/L	16.80 ± 9.62 mmol/L	32.94 ± 19.18 g/L	75.92 ± .072 µmol/L
